Measured values: patent US20090221530A1, “Relaxase Modulators and Methods of Using Same” (priority 2005, published 2009)
Read-outs that look alike come from different tables or passages of the source.

Target: T1, F plasmid TraI N300 (Escherichia coli, UniProt P14565)
T1 construct: An amino-terminal 300 residue F plasmid TraI construct; made in house; host or cells: E. coli BL21 (DE3)/pLysS or HMS174 (DE3)/pLysS, vector pTYB2
Experiment: Fluorescence kinetic assay of oriT DNA cleavage and crossover by TraI N300
Format: biochemical, E. coli
Experimental: Reaction Buffer: 6.42 mM MgCl2, 20.5% glycerol, 153.9 mM NaCl, and 51.3 mM Tris-HCl pH 7.5. Streptavidin Wash Buffer (Tris buffered saline, TBS/Tween): and 150 mM NaCl, 25 mM Tris-HCl pH 7.5, and 0.05% Tween-20. Stopping Buffer: 1.2% sodium-dodecyl sulfate (SDS), and 300 mM EDTA pH 10. TE Buffer: 1 mM EDTA, and 10 mM Tris-HCl pH 7.4. Fluorescence Buffer: 80% glycerol, 200 mM Tris-HCl pH 8.0. Short-term N300 stock (for storage at −20° C.): 50% Reaction Buffer, 49.8% glycerol, 0.2% long-term protein solution (84.6 nM final N300 concentration). All 5× stocks except Probe stocks were diluted in Reaction Buffer. 5× Enzyme Stock: 8.4 mL short-term N300 stock diluted to 2.02 nM N300. 5× Inhibitor Stocks: imidodiphosphate (pNp) at 0-50 nM in Reaction Buffer. 5× Substrate Stocks: oligonucleotides b29 and PCb31eco diluted to […] each, by 3-fold serial dilutions. 5× Probe Stocks: […] (1.2-fold molar excess) oligonucleotide downF in TE Buffer. All reactions and procedures involving downF were assembled or performed in darkened conditions. Solutions and microtiter plates containing downF were kept in foil-lined containers at all times to prevent photobleaching.
Two oriT derived oligonucleotides, b29 and PCb31eco, were designed for binding and cleavage by TraI based on past studies (see Oligonucleotides section herein; FIG. 4A). The overall method is modified from those described previously for the study of TraI and R388TrwC (Byrd et al., 2002; Grandoso et al., 2000; Matson and Morton, 1991). Reactions were assembled from 16 μL of 5× Substrate Stock, 16 μL of 5× Inhibitor Stock, and 32 μL of Reaction Buffer. 80 μL reactions were initiated with 16 μL of 5× Enzyme Stock and raised to 37° C. 10 μL samples were removed at eight time points (optimized to define timecourses) and stopped in 10 μL of Stopping Buffer at room temperature. Stopped reactions were placed on a 100° C. heat block for one minute, spiked with 2 μL of 5× Probe Stock while still hot, and incubated at 37° C. for 10 minutes (see Kinetic Assay Formulations for probe handling).
Samples were diluted to […] with Streptavidin Wash Buffer and transferred to Biobind Assembly streptavidin-coated microtiter plates (Thermo Electron Corporation, Waltham, Mass., U.S.A.) and incubated at 37° C. for 45 minutes. Plates were washed with at least 5-fold excess Streptavidin Wash Buffer (in an inverted position to prevent excess biotinylated species from transferring between wells). Wells were filled with 65 μL of Fluorescence Buffer for optimum 6-FAM™ fluorescence. Plates were read in a FLUOSTAR OPTIMA™ (BMG Labtech, Offenburg, Germany) with a 490 nm excitation and 520 nm emission filters (10 nm bandpass) with the gain optimized for maximum signal. The timecourses thus collected were designated Cleavage Courses. Plates were removed and irradiated with 306 nm ultraviolet radiation for 10 minutes to cleave the PC biotin linker. They were then washed inverted with at least 5-fold excess Streptavidin Wash Buffer, filled with 65 μL of Fluorescence Buffer, and again read as above. These timecourses were designated Cleavage+Crossover Courses (FIG. 4A).
All timecourses were fitted by nonlinear regression with un-weighted least-squares methods using SIGMAPLOT™ 8.0 (SYSTAT Software, Inc., Point Richmond, Calif., U.S.A.) (also used for graph construction). Timecourses with blanked signals in arbitrary fluorescence units were scaled by curve mean in groups of at least four replicates, culled for outliers, and averaged by time point. On average, one replicate time point was culled from each group of four used. The averaged curves were fitted to a simple, three-parameter exponential decay equation (Equation 1), time versus signal, and converted into units of concentration.
where t is time in seconds, y0+a is the initial signal, b is a constant that determines the shape of the curve. […]

T1 sequence (P14565 1-306): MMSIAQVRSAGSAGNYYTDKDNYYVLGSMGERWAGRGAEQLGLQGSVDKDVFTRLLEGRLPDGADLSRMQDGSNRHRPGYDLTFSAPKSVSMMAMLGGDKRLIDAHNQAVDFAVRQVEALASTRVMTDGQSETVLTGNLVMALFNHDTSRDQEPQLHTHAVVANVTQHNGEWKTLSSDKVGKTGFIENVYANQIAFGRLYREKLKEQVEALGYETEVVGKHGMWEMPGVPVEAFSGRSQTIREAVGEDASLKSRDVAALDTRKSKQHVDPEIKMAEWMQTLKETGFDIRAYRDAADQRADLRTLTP

O=P(O)(O)NP(=O)(O)O [pNp, imidodiphosphate]
Ki (Cleavage, C-B/E Direct Linear Plot, read-out: Kic): 2.42 nM
Ki (Cleavage, C-B/E Direct Linear Plot, read-out: Kiu): 2.65 nM
Ki (Cleavage, M/M Nonlinear Regression, competitive inhibition constant, apparent, read-out: Kic): 2.3 ± 0.26 nM
Ki (Cleavage, M/M Nonlinear Regression, uncompetitive inhibition constant, apparent, read-out: Kiu): 3.17 ± 0.32 nM
Ki (Crossover, C-B/E Direct linear Plot, read-out: Kic): 1.59 nM
Ki (Crossover, C-B/E Direct linear Plot, read-out: Kiu): 3.24 nM
Ki (Crossover, M/M Nonlinear Regression, read-out: Kic): 0.885 ± 0.543 nM
Ki (DNA cleavage, read-out: inhibition constants (Ki values) for both competitive and uncompetitive modes (Kic and Kiu)): 2.5 to 3 nM
Ki (DNA crossover, read-out: Kic): 0.9 to 1.6 nM
Ki (DNA crossover, read-out: Kiu): 3.2 nM
